Results from patent publication US8932597B2 (priority 2008, dated 2015).

Assays:
[1] = system: anti-M2 human monoclonal antibody Z3G1; type: binding
HuM2e antibody 23K12 = type: binding, human

| Substance | Signal (peptides that show specific binding to Z3G1) [1] | Signal (peptides that bind to 23K21 and 8I10) (HuM2e antibody 23K12) | Signal (peptides that bind to Z3G1) [1] |
| --- | --- | --- | --- |
| 598 (SLLTEVETPIRNEWGCRKNDSSD; epitope peptide) [compound 598] | 2435 | 835 |  |
| 593 (SLLTEVEIPIRNEWGCRCNDSSD; epitope peptide) [compound 593] | 2365 | 839 |  |
| 649 (SLLTEVETTIRNEWGCRCNDSSD; epitope peptide) [compound 649] | 2295 | 760 |  |
| 346 (SLLMEVETPIRNEWGCRCNDSSD; epitope peptide) [compound 346] | 2477 | 1616 |  |
| 657 (SLLTEVDTPIRNEWGCRCNDSSD; epitope peptide) [compound 657] | 2095 | 751 |  |
| 640 (SLLTEVETPIRNKWGCRCNDSSD; epitope peptide) [compound 640] | 2402 | 765 |  |
| 637 (SLLTEVETPIRNENGCRCNDSSD; epitope peptide) [compound 637] | 2265 | 768 |  |
| 291 (MSLLTEVGMCLCTCV; epitope peptide) [compound 291] |  | 2110 | 2842 |
| 551 (SLLTEVATPIRNEWGCRCNDSSD; epitope peptide) [compound 551] | 2093 | 914 |  |
| 288 (CSCLCEVGMSLLTEV; epitope peptide) [compound 288] |  | 2154 | 1812 |
| 328 (SLETEVETPIRNEWGCRCNDSSD; epitope peptide) [compound 328] | 1963 | 1720 |  |
| 377 (SLKTEVETPIRNEWGCRCNDSSD; epitope peptide) [compound 377] | 1453 | 1434 |  |
| 592 (MSLCTEVGCSLLTEC; epitope peptide) [compound 592] |  | 840 | 1971 |
| 537 (SLLTEVEPPIRNEWGCRCNDSSD; epitope peptide) [compound 537] | 2522 | 953 |  |
| 562 (SLLTEVETPIRWEWGCRCNDSSD; epitope peptide) [compound 562] | 2302 | 890 |  |
| 365 (CSLLTEVCMSLLTEC; epitope peptide) [compound 365] |  | 1498 | 1891 |
| 607 (SLLTEVESPIRNEWGCRCNDSSD; epitope peptide) [compound 607] | 2156 | 817 |  |
| 283 (CSLLTEVGSLLTEV; epitope peptide) [compound 283] | 2903 | 2494 |  |
| 420 (SLLTEVETPIRNEWGCRCNDSCD; epitope peptide) [compound 420] |  | 725 | 2269 |

| Substance | Signal (peptides that show specific binding to Z3G1) [1] | Signal (peptides that bind to 23K21 and 8I10) (HuM2e antibody 23K12) | Signal (peptides that bind to Z3G1) [1] |
| --- | --- | --- | --- |
| 679 (SLLTEVETPIRNEWGCECNDSSD; epitope peptide) [compound 679] | 2148 | 730 |  |
| 473 (SLSTEVETPIRNEWGCRCNDSSD; epitope peptide) [compound 473] | 2052 | 1217 |  |
| 513 (MCLLTEVGMSLLTEV; epitope peptide) [compound 513] |  | 1032 | 2697 |
| 538 (LLLTEVETPIRNEWGCRCNDSSD; epitope peptide) [compound 538] | 1399 | 950 |  |
| 399 (SLLTEVETPIRNEWGCRCNTSSD; epitope peptide) [compound 399] |  | 795 | 2483 |
| 654 (SLLTEVETPIRYEWGCRCNDSSD; epitope peptide) [compound 654] | 2202 | 755 |  |
| 470 (MSLLTEVGCSLLTEC; epitope peptide) [compound 470] |  | 1227 | 2349 |
| 666 (SLLTEVETPIRNAWGCRCNDSSD; epitope peptide) [compound 666] | 2334 | 743 |  |
| 615 (SLLTEVETPIRNEWGCDCNDSSD; epitope peptide) [compound 615] | 2207 | 810 |  |
| 544 (SLLTEVETPIRNEWGCRCRDSSD; epitope peptide) [compound 544] |  | 924 | 2447 |
| 702 (SLLTEVETPIRNYWGCRCNDSSD; epitope peptide) [compound 702] | 2311 | 714 |  |
| 564 (SLLTEVELPIRNEWGCRCNDSSD; epitope peptide) [compound 564] | 2407 | 886 |  |
| 379 (SLCTEVGCSCLCEV; epitope peptide) [compound 379] | 1500 | 1421 |  |
| 626 (SLLTEVETPIRNEWGCRCYDSSD; epitope peptide) [compound 626] |  | 791 | 2385 |
| 599 (SLLTEVERPIRNEWGCRCNDSSD; epitope peptide) [compound 599] | 2131 | 834 |  |
| 407 (SLLTEVETPIRNEWGCRCNDHSD; epitope peptide) [compound 407] |  | 1200 | 2537 |
| 631 (SLLTEVETPIRKEWGCRCNDSSD; epitope peptide) [compound 631] | 2437 | 782 |  |
| 371 (MSLCTEVGMSLLTEV; epitope peptide) [compound 371] |  | 1468 | 2691 |
| 293 (CSLLTEVGMSLLTEV; epitope peptide) [compound 293] |  | 2039 | 2827 |

| Substance | Signal (peptides that show specific binding to Z3G1) [1] | Signal (peptides that bind to 23K21 and 8I10) (HuM2e antibody 23K12) | Signal (peptides that bind to Z3G1) [1] |
| --- | --- | --- | --- |
| 520 (VLLTEVETPIRNEWGCRCNDSSD; epitope peptide) [compound 520] | 1758 | 1014 |  |
| 552 (SLLTEVETPIRNEWGCYCNDSSD; epitope peptide) [compound 552] | 2397 | 913 |  |
| 583 (SLLTEVWTPIRNEWGCRCNDSSD; epitope peptide) [compound 583] | 1889 | 855 |  |
| 446 (SLLTEVETPIRNEWGCRCND; epitope peptide) [compound 446] |  | 738 | 2276 |
| 616 (SLLTEVETPIRNPWGCRCNDSSD; epitope peptide) [compound 616] | 2288 | 808 |  |
| 286 (CSLLTEVGMSLLTCV; epitope peptide) [compound 286] |  | 2311 | 2768 |
| 658 (SLLTEVYTPIRNEWGCRCNDSSD; epitope peptide) [compound 658] | 1092 | 751 |  |
| 425 (SLLTEVETPIRNEWGCRCNDSKD; epitope peptide) [compound 425] |  | 770 | 2361 |
| 372 (CSLLTEVGMSCLTEV; epitope peptide) [compound 372] |  | 1466 | 2554 |
| 353 (SLLTEVGCSLLTEC; epitope peptide) [compound 353] | 2380 | 1556 |  |
| 397 (SLLTEVETPIRNEWGCRCNQSSD; epitope peptide) [compound 397] |  | 842 | 2376 |
| 672 (SLLTEVETPIRNEWGRRCNDSSD; epitope peptide) [compound 672] | 2372 | 735 |  |
| 664 (SLLTEVETPIRNEWGNRCNDSSD; epitope peptide) [compound 664] | 2328 | 746 |  |
| 545 (SLLTEVSTPIRNEWGCRCNDSSD; epitope peptide) [compound 545] | 2288 | 923 |  |
| 127 (CSLLTEVETCSLLTEVETC; epitope peptide) [compound 127] | 2555 | 1647 |  |
| 352 (SLQTEVETPIRNEWGCRCNDSSD; epitope peptide) [compound 352] | 2025 | 1561 |  |
| 449 (SLNTEVETPIRNEWGCRCNDSSD; epitope peptide) [compound 449] | 1908 | 1333 |  |
| 667 (SLLTEVETPIRNEWGIRCNDSSD; epitope peptide) [compound 667] | 2211 | 739 |  |
| 356 (SLLTEVETPIRNEWGCRCNDSDD; epitope peptide) [compound 356] |  | 1553 | 2181 |
